In patent US12447172B2, “Use of the miR-27a-5p microRNA for treating Clostridium difficile-induced bowel inflammation” (priority 2018, dated 2025):

How the values were obtained:
[1] = system: C. difficile; experiment: Bacterial count in cecal contents at D2 post-infection
[2] = system: C. difficile wild-type strain R20291 infection
[3] = system: IκB-α (NF-κB pathway); experiment: IκB-α Western blot of cecal lysates (NF-κB pathway activation); type: in vivo, C57BL/6 mice; settings: infected, mimic-treated mice, D2 post-infection
[4] = system: C. difficile wild-type strain R20291 infection; experiment: Clinical manifestations in the mouse model of CDI
[5] = system: miR-27a-5p expression in Caco-2 cells; experiment: miR-27a-5p expression (qRT-PCR) in Caco-2 cells pretreated with NF-κB and MAPK pathway inhibitors, then incubated with FliC or C. difficile R20291; settings: 20 μM added 1 h before FliC or strain R20291
[6] = mice infected with WT R20291, mimic 3 x 50 μg IV, D1 post-infection
[7] = mice infected with WT R20291, mimic 3 x 50 μg IV, D2 post-infection
[8] = uninfected mice (negative control) treated with mimic, D1
[9] = uninfected mice (negative control) treated with mimic, D2

miR-27a-mimic: Synthetic double-stranded RNA mimic by Riboxx (SEQ ID NO: 2/3, M-00303-0200 CONmiR Mimic in vivo), given IV mixed with in vivo-jetPEI (chain 1 AGGGCUUAGCUGCUUGUGACCCCC; chain 2 GGGGGUCACAAGCAGCUAAGCCCU; formulated with in vivo-jetPEI, further chemistry not given here)
bacterial count in the cecal contents ([1]; WT-infected, mimic-treated mice): 3.7 × 10^9 CFU/g | rate of intestinal colonization compared with untreated WT-infected mice ([1]; cecal contents): quite equivalent | mice with a cecum with little or no evidence of inflammation and normal, mucus-free cecal contents ([2]; infected, mimic-treated group, D2 post-infection): 6 of 10 | inflammatory appearance of the cecum ([2]; infected, mimic-treated mice, D2 post-infection, macroscopic): largely attenuated | inflammation score of the 3 treated mice that showed diarrhea at D2 ([2]; infected, mimic-treated, D2 post-infection): high inflammation score comparable to infected and untreated mice | efficacy rate ([2]; mouse model of infection, 3 of 10 treated mice affected): 70% | histological inflammation score (Table 3) ([2]; mouse, in vivo): 0 | histologic score of inflammation (Table 3) ([2]; the infected, mimic-treated mice with little or no inflammation, D2, untreated infected mice 6 to 9): less than 6 | IκB-α in the cecum (NF-κB pathway activation) [3]: no activation of IκB-α was detected | Bristly hair D1 (animals affected/group) [4, 6]: 0/10 | Reduced activity D1 (animals affected/group) [4, 6]: 0/10 | Bristly hair D2 (animals affected/group) [4, 7]: 0/10 | Reduced activity D2 (animals affected/group) [4, 7]: 1/10 | Diarrhea D1 (animals affected/group) ([4]; mice infected with WT R20291, mimic/in vivo-jetPEI 3 x 50 μg IV, D1 post-infection): 0/10 | Diarrhea D2 (animals affected/group) ([4]; mice infected with WT R20291, mimic/in vivo-jetPEI 3 x 50 μg IV, D2 post-infection): 3/10 | Diarrhea D2 (animals affected/group) ([4]; mice infected with WT R20291, mimic/in vivo-jetPEI 3 x 50 μg IV, D2 post-infection, listed as miR27-a-mimic): 3 out of 10 | clinical and pathological manifestations caused by the bacteria ([4]; mouse model of CDI, mimic administered intravenously): significantly reduces | Diarrhea D1 (animals affected/group) ([4]; uninfected mice (negative control) treated with mimic 3 x 50 μg IV, D1): 0/9 | Diarrhea D2 (animals affected/group) ([4]; uninfected mice (negative control) treated with mimic 3 x 50 μg IV, D2): 0/9 | Bristly hair D1 (animals affected/group) [4, 8]: 0/9 | Reduced activity D1 (animals affected/group) [4, 8]: 0/9 | Bristly hair D2 (animals affected/group) [4, 9]: 0/9 | Reduced activity D2 (animals affected/group) [4, 9]: 0/9

Cc1ccc2nc(NCCN)c3ncc(C)n3c2c1 [BMS 345541]
inhibition of miR-27a-5p expression [5]: roughly 40 fold
